The text below walks through data of US9580430B2, “9H-pyrimido[4,5-B]indoles and related analogs as BET bromodomain inhibitors” (THE REGENTS OF THE UNIVERSITY OF MICHIGAN, priority 2014, dated 2017).

Each structure is given as a SMILES string.

Series [1] has as its system VCaP prostate cancer cells. The series is described as follows: Cell growth inhibition, VCaP prostate cancer cells (Cell-Titer GLO). The following applies: 8 days; FIG. 22. The class given is cell-based. As for the experimental part: For prostate cancer cell lines, VCaP prostate cancer cells were grown in DMEM with Glutamax (Gibco) supplemented with 10% FBS (Invitrogen) in 5% CO2 cell culture incubator. All cell lines were tested and found to be free of mycoplasma contamination. Cells were seeded in 96-well plates at 2,000-10,000 cells per well (optimum density for growth) in a total volume of […] media containing 10% FBS. Serially diluted compounds in […] media were added to the cells 12 h later. […] The values were normalized and IC50 was calculated using GraphPad Prism software.
(§1) Cells were seeded in 96-well plates at 2000-10,000 cells/well (optimum density for growth) in a total volume of 100 μl media containing 10% FBS. Serially diluted compounds in 100 μl media were added to the cells 12 h later. Following 96 h. incubation, cell viability was assessed by Cell-Titer GLO (Promega). The values were normalized and IC50 was calculated using GraphPad Prism software. […] After 12 days cells were fixed with methanol, stained with crystal violet and photographed. For colorimetric assays, the stained wells were treated with 500 μl 10% acetic acid and the absorbance was measured at 560 nm using a spectrophotometer.

The subject of series [2] is 5 prostate cancer and 1 benign prostate cell line. The series can be described thus: Cell viability assay, panel of prostate cell lines (Cell-Titer GLO). The note with it: three of the AR-signaling positive cells; FIG. 1. The class given is cell-based. As for the experimental part: VCaP prostate cancer cells were grown in DMEM with Glutamax (Gibco), LNCaP, 22RV1, DU145 and PC3 prostate cancer cell lines were grown in RPMI 1640, all were supplemented with 10% FBS (Invitrogen) in 5% CO2 cell culture incubator. The immortalized benign prostate cell line RWPE-1 was grown in keratinocyte media with supplements (Lonza). All cell lines were tested and found to be free of mycoplasma contamination.
as §1

In series [3] the test system is AR-positive cells. The series is described as follows: Long-term colony formation assay. The class given is cell-based. The following applies: 100 nM, 12 days, FIG. 3. On the procedure: as §1
Series [4] has as its system AR-positive cells. The series is described as follows: Cell cycle analysis and apoptosis (cleaved PARP immunoblot). The note with it: FIG. 2. The class given is cell-based. On the procedure: For cell cycle analysis, cells were washed 48 h post-treatment with PBS and fixed in 70% ethanol overnight. The cells were washed again with PBS, stained with propidium iodide and analyzed by flow cytometry.
(§2) For Western blot analysis, 200 ug total protein extract was boiled in sample buffer and 10-20 μg aliquots were separated by SDS-PAGE and transferred onto Polyvinylidene Difluoride membrane (GE Healthcare). The membrane was incubated for one hour in blocking buffer [Tris-buffered saline, 0.1% Tween (TBS-T), 5% nonfat dry milk] followed by incubation overnight at 4° C. with the primary antibody. Following a wash with TBS-T, the blot was incubated with horseradish peroxidase-conjugated secondary antibody and signals were visualized by enhanced chemiluminescence system as per manufacturer's protocol (GE Healthcare).
A general note: A western blot detects proteins with antibodies after separation by electrophoresis.

The test system of series [5] is PSA and ERG. The series can be described thus: QRT-PCR and immunoblot of AR-target genes in VCaP. The class given is cell-based. The following applies: VCaP cells; FIGS. 4 and 5. On the procedure: (§3) Total RNA was isolated from cells using RNeasy Mini Kit (Qiagen) and cDNA was synthesized from 1,000 ng total RNA using SuperScript III First-Strand Synthesis SuperMix (Invitrogen). QPCRs were performed in duplicate or triplicate using Taqman assays (Applied Biosystems) or standard SYBR green reagents and protocols on a StepOnePlus Real-Time PCR system (Applied Biosystems). The target mRNA expression was quantified using ΔΔCt method and normalized to GAPDH expression. All primers were designed using Primer 3 (http://frodo.wi.mit.edu/primer3/) and synthesized by Integrated DNA Technologies (Coralville, Iowa).
as §2

For series [6], the system named is AR-gene signature. The series can be described thus: Gene expression array, GSEA of the AR target gene signature. The class given is cell-based. The note with it: AR-positive cells; 500 nM, 24 h; FIG. 6. On the procedure: (§4) Cells treated with only vehicle or 10 nM DHT served as controls. […] Expression profiling was performed using the Agilent Whole Human Genome Oligo Microarray (SantaClara, Calif.) according to the manufacturer's protocol. All samples were run in technical duplicates or quadruplets against control. Over- and under-expressed gene sets were generated by filtering to include only 2-fold average over- or underexpression (Log ratio with p<0.001) in all hybridizations.

For series [7], the system named is MYC. The series is described as follows: MYC levels in prostate cancer cells. It is filed as cell-based. The following applies: AR-positive cells sensitive to JQ1, not AR-negative cells. As for the experimental part:
as §3, §2

Series [8] can be described thus: Prostate histology and hormone measurement in mice. It is filed as in vivo. As for the experimental part: Highly hormone responsive seminal vesicles attached to prostate were harvested from mice after four weeks of injection. Prostate were fixed in formalin solution and processed for sectioning. Standard H&E staining was achieved on the formalin fixed sections and were used to image the different lobes of the gland. To determine the testosterone levels, blood samples were collected by cardiac puncture from mice anesthetized with isoflurane. The serum was separated from the blood and stored at −80° C. until assayed. Serum testosterone levels were measured by the Ligand Assay at University of Michigan-ULAM Pathology Cores for Animal Research.

Series [9] has as its system VCaP tumor xenograft. On the procedure:
(§5) Four week-old male SCID C.B17 mice were procured from a breeding colony at University of Michigan. All procedures involving mice were approved by the University Committee on Use and Care of Animals (UCUCA) at the University of Michigan and conform to all regulatory standards. Mice were anesthetized using 2% Isoflurane (inhalation) and 2×10^6 VCaP prostate cancer cells suspended in 100 μl of PBS with 50% Matrigel (BD Biosciences) were implanted subcutaneously into the dorsal flank on both sides of the mice. […] Growth in tumor volume was recorded using digital calipers and tumor volumes were estimated using the formula (π/6) (L×W^2), where L=length of tumor and W=width. Loss of body weight during the course of the study was also monitored. At the end of the studies mice were sacrificed and tumors extracted and weighed. Additionally, femur bone marrow, liver and spleen were harvested to examine spontaneous metastasis by detecting human-Alu sequence. […] All procedures involving mice were approved by the University Committee on Use and Care of Animals (UCUCA) at the University of Michigan and conform to all regulatory standards.

For series [10], the system named is VCaP xenograft model. The series can be described thus: Spontaneous metastasis in the VCaP xenograft model (human Alu qPCR). The class given is in vivo, mice. The following applies: femur, liver and spleen; JQ1 50 mg/kg, MDV3100 10 mg/kg. As for the experimental part: as §5
A general note: Xenograft models place foreign cells or tissue in a host animal.

Series [11] has as its system castration-resistant VCaP tumor xenografts. The series can be described thus: Castration-resistant VCaP tumor xenograft (CRPC experiment). The class given is in vivo. The following applies: castrated mice; 50 mg/kg, 5 days/week; FIG. 26. As for the experimental part: as §5
The test system of series [12] is MYC signature. The series can be described thus: Gene expression array, GSEA of MYC signature, 22RV1. It is filed as cell-based. The note with it: 22RV1 after JQ1 treatment. On the procedure:
as §4

With `Cc1sc2c(c1C)C(c1ccc(Cl)cc1)=N[C@@H](CC(=O)OC(C)(C)C)c1nnc(C)n1-2` [JQ1], in series [1], the “VCaP cell viability in vitro” value is recorded as “suppression of cell growth at sub-micromolar concentrations”. For the same compound, the “sensitivity of prostate cell lines” value in [2] is “sensitive”. In series [3], the long term colony-formation entry is given as “severely inhibited”. Further, the “cell cycle arrest and apoptosis” value in series [4] was “induced G0-G1 arrest, apoptosis”. The “PSA and ERG mRNA and protein level” value in [5] was “dose-dependent decrease in PSA and ERG”. For the same compound, the “GSEA of AR-gene signature” value in series [6] is given as “significantly repressed”. Besides, the MYC levels entry in [7] was “attenuated”. Moreover, in series [8], the physiologic androgen-regulated processes result is “No effect on physiologic androgen-regulated processes”. Further, the testes size entry in series [8] is reported as “reduced testes size”. For the same compound, in series [9] (VCaP tumor-bearing mice, JQ1 50 mg/kg, MDV3100 10 mg/kg, 5 days/week, FIGS. 23-25), the tumor volume/weight entry was “significant reduction in tumor volume/weight”. The tolerability result in [9] (mouse, in vivo) was “well tolerated”. Further, the spontaneous metastasis result in [10] was “no evidence of metastasis”. Further, the “reduction in castration-resistant tumors” value in series [11] was 50%. In addition, the NES in series [12] (gene set MYC_UP.V1_UP) is on record as −1.712; in series [12] (gene set SCHLOSSER_MYC_AND_SERUM_RESPONSE_SYNERGY), −1.521; in series [12] (gene set SCHLOSSER_MYC_TARGETS_AND_SERUM_RESPONSE_UP) it was 1.353; in series [12] (gene set SCHUHMACHER_MYC_TARGETS_UP), −1.851.
